Source: patent US5456247A, “Method for delivering drugs soluble in a vaporization vehicle” (priority 1993, dated 1995)
Where two headings read alike, the source gives them in different places.

How the values were obtained:
in vivo [1] = conditions: inhaled or intranasal
Method: (§1) The levels that were taken orally were administered for a period of time on the order of days, while inhalation treatments were for a period of time on the order of minutes in length (five minutes).

[2] = rat, in vivo, inhaled or intranasal, 0.05 h
Method: Tests were conducted to study the entry of sulfa drugs into the blood and lungs of test subjects. […] Samples of sulfamethazine and menthol (0.285 grams equal portions of each) were weighed and heated at 180° C. in a distillation flask in the volatile chamber. Rats were placed in the treatment chamber 9. […] An air pump was used to circulate air through the volatile chamber 10 to the treatment chamber. The rats' condition, temperature of the flask and vapor flow into the treatment chamber 9 were monitored. After three minutes of inhalation therapy the air flow was shut off and the rats were removed from treatment chamber 9. Blood and lung tissue were removed for testing.

in vivo [3] = conditions: rat, inhaled or intranasal
Method: Tests were conducted to study the entry of sulfa drugs into the blood and lungs of test subjects. […] Rats were placed in the treatment chamber 9. […] An air pump was used to circulate air through the volatile chamber 10 to the treatment chamber. The rats' condition, temperature of the flask and vapor flow into the treatment chamber 9 were monitored. After three minutes of inhalation therapy the air flow was shut off and the rats were removed from treatment chamber 9. Blood and lung tissue were removed for testing.

[4] = in vivo
Method: as §1

bordetella avium = conditions: turkeys; route not stated; cited from earlier work
[5] = Volatilization of drugs with a vaporization vehicle; type: physicochemical; conditions: menthol as vaporization vehicle
Source text: The amount of vaporization vehicle depends on which drug is delivered. […] Other potential vaporization vehicles include carvone, menthone and camphor.

| Compound | concentration at 25 min (in vivo [1]) [ng/g] | Lungs: sulfamethazine level [2] [ppb] | Lungs: sulfamethazine level (in vivo [3]; 0.05 h) | concentration at 0.05 h (in vivo [3]; Lungs: sulfamethazine level) [ng/g] | sulfamethazine level in lung tissue, inhalation, immediate ([4]; 0 min) [ppm] | sulfamethazine level in lung tissue, oral ([4]; po) [ppm] | success at treating bordetella avium disease (bordetella avium) | need for menthol for volatilization [5] |
| --- | --- | --- | --- | --- | --- | --- | --- | --- |
| Cc1cc(C)nc(NS(=O)(=O)c2ccc(N)cc2)n1 [sulfamethazine] | 100 | 50 | ~ 0.1 ppm | ~100 | 0.2 | 0.1 |  |  |
| Cc1cc(NS(=O)(=O)c2ccc(N)cc2)no1 [sulfamethoxazole] |  |  |  |  |  |  | successful at treating the disease |  |
| gentamicin |  |  |  |  |  |  | successful at treating the disease | can be volatilized with little or no menthol |
